Measured values from ChEMBL document CHEMBL1629701, “Phase 2a randomized controlled trial of short-term activity, safety, and pharmacokinetics of a novel nonnucleoside reverse transcriptase inhibitor, RDEA806, in HIV-1-positive, antiretroviral-naive subjects” (Antimicrob Agents Chemother, 2010).
The source made the active and inactive calls. The rule behind the calls is not given here.

What was measured:
[1] = Plasma protein binding in rhesus monkey; type: ADME, cell-free, Macaca mulatta; conditions: read-out: PPB
[2] = Drug excretion in rat urine; type: ADME, tissue-based; conditions: read-out: Activity
[3] = AUC (24 hrs) in fasted human at 400 mg, po every 24 hrs measured on day 8; type: ADME, organism-based; design: time < 24 hr, dose 400 mg, route oral; conditions: plasma
[4] = system: Human immunodeficiency virus 1; assay: Antiviral activity against HIV1 infected in fasted human assessed as decrease in log10 HIV RNA copies/ml at 400 mg, po BID for 7 days as four modified-release capsules followed by a single dose on day 8 measured on day 9 relative to pooled placebo control; type: functional
[5] = system: Human immunodeficiency virus 1; assay: Antiviral activity against HIV1 infected in fasted human assessed as decrease in plasma viral log10 RNA copies/ml at 400 mg, po BID for 7 days as four modified-release capsules followed by a single dose on day 8 measured on day 9 relative to pooled placebo control; type: functional
[6] = Plasma protein binding in human; type: ADME, cell-free; conditions: read-out: PPB
[7] = Drug concentration at steady state in fasted human plasma at 800 mg, po every 24 hrs measured on day 8; type: ADME, organism-based; conditions: read-out: Drug uptake
Homo sapiens = species on record: Homo sapiens; assay: Reduction in uric acid level in human plasma; type: functional, organism-based
[8] = Half life in fasted human at 400 mg, po every 24 hrs measured on day 8; type: ADME, organism-based; conditions: in vivo
[9] = Drug excretion in human urine; type: ADME; conditions: read-out: Activity
[10] = Drug concentration at steady state in fasted human plasma at 1000 mg, po every 24 hrs measured on day 8; type: ADME, organism-based; conditions: read-out: Drug uptake
[11] = Tmax in fasted human at 1000 mg, po every 24 hrs measured on day 8; type: ADME, organism-based; conditions: in vivo
[12] = system: Human immunodeficiency virus 1; assay: Antiviral activity against HIV1 infected in fasted human assessed as decrease in log10 HIV RNA copies/ml at 1000 mg, po […] followed by a single dose on day 8 measured on day 9 relative to pooled placebo control; type: functional
[13] = Cmax in human plasma at 500 mg administered as multiple doses, BID; type: ADME, organism-based; design: dose 500 mg
[14] = Drug concentration at steady state in fasted human plasma 600 mg, po every 24 hrs measured on day 8; type: ADME, organism-based; conditions: read-out: Drug uptake
[15] = system: Human immunodeficiency virus 1; assay: Antiviral activity against HIV1 infected in human assessed as change in CD4 expressing T-cell count from baseline at 600 mg, po BID for 7 days as four modified-release capsules followed by a single dose on day 8 measured on day 9 relative to pooled placebo control; type: functional
[16] = system: Human immunodeficiency virus 1; assay: Antiviral activity against HIV1 infected in human assessed as change in CD4 expressing T-cell count from baseline at 400 mg, po BID for 7 days as four modified-release capsules followed by a single dose on day 8 measured on day 9 relative to pooled placebo control; type: functional
[17] = molecular target: T1, Solute carrier family 22 member 12 (Homo sapiens, UniProt Q96S37); assay: Inhibition of human URAT-1 assessed as increase in renal uric acid excretion; design: species or system Kidney
T1 sequence (Q96S37 whole entry): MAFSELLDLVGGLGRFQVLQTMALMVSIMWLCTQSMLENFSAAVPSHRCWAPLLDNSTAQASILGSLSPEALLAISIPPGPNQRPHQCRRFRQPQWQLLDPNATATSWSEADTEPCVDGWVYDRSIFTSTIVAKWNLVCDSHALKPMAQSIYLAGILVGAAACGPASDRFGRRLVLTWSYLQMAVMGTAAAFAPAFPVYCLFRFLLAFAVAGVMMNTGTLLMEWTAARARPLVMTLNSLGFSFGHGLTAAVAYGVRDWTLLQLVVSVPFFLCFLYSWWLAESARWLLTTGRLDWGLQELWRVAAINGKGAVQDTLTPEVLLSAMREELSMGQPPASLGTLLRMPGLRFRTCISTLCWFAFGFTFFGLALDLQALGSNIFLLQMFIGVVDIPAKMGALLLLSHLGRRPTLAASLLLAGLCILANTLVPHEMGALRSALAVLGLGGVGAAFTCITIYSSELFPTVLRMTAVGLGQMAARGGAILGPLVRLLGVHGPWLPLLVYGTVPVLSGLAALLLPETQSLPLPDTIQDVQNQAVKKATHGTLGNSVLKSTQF

[18] = Cmax in fasted human plasma at 600 mg, po every 24 hrs measured on day 8; type: ADME, organism-based; design: dose 600 mg, route oral
[19] = system: Human immunodeficiency virus 1; assay: Antiviral activity against HIV1 infected in fasted human assessed as decrease in log10 HIV RNA copies/ml at 600 mg, po […] followed by a single dose on day 8 measured on day 9 relative to pooled placebo control; type: functional
[20] = Tmax in fasted human plasma at 600 mg; type: ADME, organism-based
[21] = Cmax in fasted human at 800 mg, po every 24 hrs measured on day 8; type: ADME, organism-based; design: dose 800 mg, route oral; conditions: in vivo
[22] = AUC (0 to 12 hrs) in human plasma at 500 mg administered as multiple doses, BID; type: ADME, organism-based; design: dose 500 mg, time < 12 hr
[23] = system: Human immunodeficiency virus 1; assay: Antiviral activity against HIV1 infected in human assessed as change in CD8 expressing T-cell count from baseline at 1000 mg, po administered every day as five enteric-coated tablets followed by a single dose on day 8 measured on day 9 relative to pooled placebo control; type: functional
[24] = system: Human immunodeficiency virus 1; assay: Antiviral activity against HIV1 infected in human assessed as log reduction in HIV-1 RNA level at 800 mg, po administered every day; type: functional
[25] = system: Human immunodeficiency virus 1; assay: Antiviral activity against HIV1 infected in human assessed as change in CD4 expressing T-cell count from baseline at 1000 mg, po administered every day as five enteric-coated tablets followed by a single dose on day 8 measured on day 9 relative to pooled placebo control; type: functional
[26] = Half life in fasted human at 600 mg, po every 24 hrs measured on day 8; type: ADME, organism-based; conditions: in vivo
[27] = system: Human immunodeficiency virus 1; assay: Antiviral activity against HIV1 infected in fed human assessed as viral load decay rate as viral log10 RNA copies/ml/day at 800 mg, po administered every day as four enteric-coated tablets followed by a single dose on day 8 measured on day 9; type: functional
[28] = Drug concentration at steady state in fasted human plasma at 400 mg, po every 12 hrs measured on day 8; type: ADME, organism-based; conditions: read-out: Drug uptake
[29] = Renal clearance in dog; type: ADME, organism-based, Canis lupus familiaris, Kidney; conditions: in vivo, read-out: CL_renal
[30] = Renal clearance in rat; type: ADME, organism-based, Kidney; conditions: in vivo, read-out: CL_renal
[31] = Plasma protein binding in dog; type: ADME, cell-free, Canis lupus familiaris; conditions: read-out: PPB
[32] = Terminal half life […] at 300 to 500 mg; type: ADME

SMILES: O=C(CSc1nnc(Br)n1-c1ccc(C2CC2)c2ccccc12)Nc1ccc(C(=O)O)cc1Cl
- fraction unbound [1]: < 0.01
- dose excreted [2]: < 0.06%
- AUC at 24 h [3]: 12400 ng·h/mL
- Activity [4]: -1.948 mL⁻¹
- Activity [5]: -2.0608 mL⁻¹
- fraction unbound [6]: < 0.01
- concentration at 24 h [7]: 310 ng/mL
- Activity (Homo sapiens): Active
- half-life [8]: 678 min
- dose excreted [9]: < 0.06%
- concentration at 24 h [10]: 515 ng/mL
- Tmax [11]: 3 h
- Activity [12]: -1.696 mL⁻¹
- Cmax [13]: 746 ng/mL
- concentration at 24 h [14]: 276 ng/mL
- Activity [15]: -14.44 /mm3
- Activity [16]: 19.22 /mm3
- Activity [17]: Active
- Cmax [18]: 2420 ng/mL
- Activity [19]: -1.394 mL⁻¹
- Tmax [20]: 4.92 h
- Cmax [21]: 1910 ng/mL
- AUC at 12 h [22]: 3770 ng·h/mL
- Activity [23]: 71.04 /mm3
- Activity [24]: 0.5 mL⁻¹
- Activity [25]: 90.48 /mm3
- half-life [26]: 425 min
- Activity [27]: -0.2 mL⁻¹
- concentration at 12 h [28]: 505 ng/mL
- CL renal [29]: ≤ 1 mL/min
- CL renal [30]: ≤ 1 mL/min
- fraction unbound [31]: < 0.01
- half-life [32]: 624 min
